Laboratory results: patent US11612627B2, “Method for preventing or treating thrombosis” (ANDONG NATIONAL UNIVERSITY INDUSTRY-ACADEMIC COOPERATION …, priority 2020, dated 2023)
“And” between values parts separate entries of the source, which are not always exact repeats. Identical values can stand only once.

What was measured:
prothrombin = assay: Prothrombin time (plasma clotting); type: biochemical; conditions: clot time sample/clot time DMSO, 3-carene section Table 3
Description: In an Amelung coagulometer KC-1A tube (Japan), 70 μl of standard plasma (MD Pacific Co., China) was heated, together with 10 μl of each of samples having various concentrations, at 37° C. for 3 min before adding 130 μl of PT reagent thereto. […] This experiment was repeated three times independently. The prothrombin time was expressed as a mean value of the three measurements.

coagulation factors = assay: aPTT (activated partial thromboplastin time); type: biochemical; conditions: clot time sample/clot time DMSO, 3-carene section Table 3
Description: Subsequently, 50 μl of CaCl2 (35 mM) was added. […] Instead of samples, DMSO served as a solvent control. […] The aPPT was expressed as a mean value of the measurements of three independent experiments.
Instead of samples, DMSO served as a solvent control. […] The aPPT was expressed as a mean value of the measurements of three independent experiments.

human erythrocytes = assay: Human erythrocyte lysis (hemolysis) activity; type: cell-based
Description: In this regard, erythrocyte lysis activity was assayed as reported previously (Sohn, Ho-Yong, 2014. Korean J. Microbiol. Biotechnol. 42: 285-292). Briefly, 100 μl of human erythrocytes, after being washed three times with PBS, was added to each well of 96-well microplates, mixed with 100 μl of each of samples having various concentrations, and incubated at 37° C. for 30 min. Subsequently, the reaction mixture was centrifuged for 10 min (1,500 rpm). After 100 μl of the supernatant was transferred to new microtiter plates, absorbance was read at 414 nm to analyze hemoglobin release according to hemolysis. DMSO (2%) was used as a solvent control for the samples while Triton X-100 (1 mg/ml) served as a control for hemolysis. Hemolysis activity was calculated according to the following equation: (%)Hemolysis=[(Abs. S−Abs. C)/(Abs. T−Abs. C)]×100
Abs. S: Absorbance of sample
Abs. C: Absorbance of DMSO
Abs. T: Absorbance of Triton X-100 added control

Human enriched platelets = assay: Platelet aggregation inhibition activity (collagen, whole-blood aggregometer); type: cell-based; conditions: for Platelet Aggregation Activity: AUC sample/AUC DMSO x 100; for Platelet Aggregation Curve: Amplitude / Platelet Aggregation Curve: Area under curve / Platelet Aggregation Curve: Lag time / Platelet Aggregation Curve: Slope: collagen-induced
Description: Platelet Aggregation Inhibition Activity Human enriched platelets were used. They were washed once with a washing buffer (138 mM NaCl, 2.7 mM KCl, 12 mM NaHCO3, 0.36 mM NaH2PO4, 5.5 mM Glucose, 1 mM EDTA, pH 6.5) and then resuspended in a suspending buffer (138 mM NaCl, 2.7 mM KCl, 12 mM NaHCO3, 0.36 mM NaH2PO4, 5.5 mM Glucose, 0.49 mM MgCl2, 0.25% gelatin, pH 7.4). Centrifugation at 3,000 rpm for 10 min was followed by resuspension in a suspending buffer, with the platelets adjusted to the density of 4×10^9/ml. Subsequently, 1 ml of the suspension was incubated with 2.5 μl of collagen for 5 min, after which platelet aggregation was measured at 37° C. using a whole-blood aggregometer (Chrono-log, USA).

[1] = miscible with oil; cited from earlier work

O=C(O)c1ccc(O)cc1 [4-Hydroxybenzoic acid, 4-hydroxybenzoic acid]
Blood coagulation inhibition activity: Prothrombin Time (prothrombin; 0.5 mg/ml): 0.99 ± 0.00
Blood coagulation inhibition activity: aPTT (coagulation factors; 0.5 mg/ml): 0.94 ± 0.15

C[C@@H]1[C@H](O)[C@@H](C)/C=C/C=C/C=C/C=C/C=C/C=C/C=C/[C@H](O[C@@H]2O[C@H](C)[C@@H](O)[C@H](N)[C@@H]2O)C[C@@H]2O[C@](O)(C[C@@H](O)C[C@@H](O)[C@H](O)CC[C@@H](O)C[C@@H](O)CC(=O)O[C@H]1C)C[C@H](O)[C@H]2C(=O)O [Amphotericin B, amphotericin B]
Human hemolytic activity (human erythrocytes; 0.003 mg/ml, flower section Table 3): 26.5 ± 9.6%
Human hemolytic activity (human erythrocytes; 0.006 mg/ml, flower section Table 3): 38.0 ± 0.7%
Human hemolytic activity (human erythrocytes; 0.00625 mg/ml, flower section Table 6): 38.0 ± 0.7%
Human hemolytic activity (human erythrocytes; 0.0125 mg/ml, flower section Table 6): 48.2 ± 5.9%
Human hemolytic activity (human erythrocytes; 0.0125 mg/ml, leaf section Table 4): 48.2 ± 5.9%
Human hemolytic activity (human erythrocytes; 0.025 mg/ml, flower section Table 3): 59.5 ± 6.3%
Human hemolytic activity (human erythrocytes; 0.025 mg/ml, flower section Table 3, listed as amphotericin B): ≥ 50%
Human hemolytic activity (human erythrocytes; 0.025 mg/ml, flower section Table 6): 59.5 ± 6.3%
Human hemolytic activity (human erythrocytes; 0.025 mg/ml, leaf section Table 4): 59.5 ± 6.3%
Human hemolytic activity (human erythrocytes; 0.025 mg/ml, leaf section Table 4, listed as amphotericin B): ≥ 50%
Human hemolytic activity (human erythrocytes; 0.05 mg/ml, flower section Table 3): 80.7 ± 7.3%
Human hemolytic activity (human erythrocytes; 0.05 mg/ml, flower section Table 6): 80.7 ± 7.3%
Human hemolytic activity (human erythrocytes; 0.05 mg/ml, leaf section Table 4): 80.7 ± 7.3%
Human hemolytic activity (human erythrocytes; 0.1 mg/ml, flower section Table 3): 95.8 ± 0.3%
Human hemolytic activity (human erythrocytes; 0.1 mg/ml, flower section Table 6): 95.8 ± 0.3%
Human hemolytic activity (human erythrocytes; 0.1 mg/ml, leaf section Table 4): 95.8 ± 0.3%

CC(=O)Oc1ccccc1C(=O)O [Aspirin, aspirin]
Platelet Aggregation Activity (Human enriched platelets; 0.125 mg/ml): 82.2%
Platelet Aggregation Curve: Amplitude (Human enriched platelets; 0.125 mg/ml): 14 ohm
Platelet Aggregation Curve: Area under curve (Human enriched platelets; 0.125 mg/ml): 78.0
Platelet Aggregation Curve: Lag time (Human enriched platelets; 0.125 mg/ml): 35 s
Platelet Aggregation Curve: Slope (Human enriched platelets; 0.125 mg/ml): 2
Platelet Aggregation Activity (Human enriched platelets; 0.25 mg/ml): 49.7%
Platelet Aggregation Curve: Amplitude (Human enriched platelets; 0.25 mg/ml): 8 ohm
Platelet Aggregation Curve: Area under curve (Human enriched platelets; 0.25 mg/ml): 47.2
Platelet Aggregation Curve: Lag time (Human enriched platelets; 0.25 mg/ml): 128 s
Platelet Aggregation Curve: Slope (Human enriched platelets; 0.25 mg/ml): 1

CC1=CCC2C(C1)C2(C)C (stereo not shown) [Extract 3-Carene, 3-carene]
Blood coagulation inhibition activity: Prothrombin Time (prothrombin; 0.5 mg/ml): 1.05 ± 0.02
Blood coagulation inhibition activity: Prothrombin Time (prothrombin; 0.75 mg/ml): 1.29 ± 0.00
Blood coagulation inhibition activity: Prothrombin Time (prothrombin; 1.0 mg/ml): 1.43 ± 0.09
Blood coagulation inhibition activity: Prothrombin Time (prothrombin; 1.0 mg/ml, listed as 3-carene): 1.43
Blood coagulation inhibition activity: aPTT (coagulation factors; 0.5 mg/ml): 1.23 ± 0.05
Blood coagulation inhibition activity: aPTT (coagulation factors; 0.75 mg/ml): 1.61 ± 0.03
Blood coagulation inhibition activity: aPTT (coagulation factors; 1.0 mg/ml): 2.26 ± 0.08
Blood coagulation inhibition activity: aPTT (coagulation factors; 1.0 mg/ml, listed as 3-carene): 2.26
Solubility in water [1]: not soluble in water

Triton X-100
Human hemolytic activity (human erythrocytes; 1.0 mg/ml, 37° C. 30 min, leaf section Table 4): 100% and 100.0 ± 0.1%
Human hemolytic activity (human erythrocytes; 1.0 mg/ml, flower section Table 3): 100% and 100.6 ± 0.8%
Human hemolytic activity (human erythrocytes; 1.0 mg/ml, flower section Table 6): 100.6 ± 0.8%
